# In patent publication US10471054B2, “CDK1 inhibitors of acetyl chrysin mannich base derivatives, synthesis and use thereof” (priority 2016, dated 2019):
# Where two headings read alike, the source gives them in different places.
# Legend:
# [1] = Solubility in Octanol, water and pH media; type: physicochemical; details: 37° C.
# Procedure: (§1) The solubility and log P of acetyl ChrysinMannich base derivatives see TABLE 1.
# (§2) CH-j is pKa 5.3, log P 1.63 in Octanol/Water at 37° C. […] (BA-j 77m/ml). CH-j belongs to BCS II (low solubility, high permeability) and solubility presents the pH dependence. […] CH-j is a pH dependent fast release. […] It is speculated that CH-j has more appropriate log P and solubility with more likely entering tissue cells than others solubility acetyl Chrysin Mannich base derivatives.
# (§3) (about 20 times BA-f 277 μg/ml) and 564 μg/ml in water at 37° C. (about 1000 times BA-f 0.53m/ml). CH-f is BCS I (high solubility and permeability) and solubility presents the pH dependence. It is speculated that CH-f has more appropriate log P and solubility with entering systemic (blood system and tissue cells) than others solubility acetyl Chrysin Mannich base derivatives.
# log P in Octanol/Water = type: physicochemical; details: octanol/water, Octanol/Water at 37° C.
# Procedure: as §1, §2, §3
# pKa = type: physicochemical
# Procedure: as §2, §3
# [2] = test system: 5 cancers cells (MCF-7, H-460, BGC-823, PC-3, Hep G2); assay: Anti-cancer cells proliferation activity, average of 5 cancer cells; type: cell-based; details: average of 5 cancer cells, MTT, 48 h
# Excerpt: Anti-cancer cells proliferationactivity of in vitro CH-j and CH-f were shown in TABLE 2 for the results of the screening of 5 cancers cells.
# [3] = Chrysin comparison value; cited from earlier work
# [4] = oral, liver first pass effect; cited from earlier work
# Hep G2 = assay: NaOCl level, BODTPY-OCl fluorescent probe imaging; type: cell-based; details: CH-j 40 μM or HCPT 5 μM for 4 h
# Procedure: In vitro cultured Hep G2 was given by BODTPY-OCl selective fluorescent probe 5 μM for 0.5 h, added CH-j 40 μM or HCPT 5 μM for 4 h, and performed fluorescence imaging.
# BGC-823 = assay: Annexin V-FITC-PI double fluorescence, apoptosis and necrosis; type: cell-based; details: 24 h
# Excerpt: There is a series of morphological characteristic changes in the apoptosis of cells, in which the change of the plasma membrane is one of the characteristics of early apoptosis. The cytoplasm is flipped from the inside of the cytoplasm to the outer surface of the cell when the cell apoptosis, Annexin V is a Ca^++ dependent phospholipid binding protein, which has a high affinity with phospholipid-peptide-serine, which can be combined with the phospholipid peptide specificity that is exposed to the extracellular cells. However, cytoplasm transfer to cell membrane is not unique to apoptosis, but also can occur in cell necrosis. The difference between the two cell death modes is that the cell membrane is intact in the initial stage of apoptosis, and the integrity of the cell membrane in its early stage is destroyed. PI is a nucleic acid dye that cannot pass through the intact cell membrane, but in the cell and necrotic cells in the middle and late stage of apoptosis, the PI can dye the nucleus through the cell membrane. Annexin V-FITC-PI was used to detect apoptosis and necrotic cell ratio on flow cytometry.
# A relatively small increase in apoptotic cells is increased.
# FIG. 3-3 Annexin V-FITC/PI staining results for BGC-823.
# [5] = organic solvent or mixture, Octanol, read-out: Solubility in Octanol
# [6] = water, read-out: Solubility in H2O
SMILES,"solubility [1, 5]","solubility ([1]; water, text values of BA-j and BA-f, read-out: Solubility in water)",logP (log P in Octanol/Water),pKa (pKa),"solubility [1, 6]",IC50 [2],Maximum drug concentration [3],Glucose aldehyde acid metabolism [4],"NaOCl, yellow green fluorescence (Hep G2)",Apoptosis and necrosis by Annexin V-FITC-PI (BGC-823)
"CC(=O)c1c(O)c(CN2CCCC2CO)c2oc(-c3ccccc3)cc(=O)c2c1O (centres unmarked) [CH-h, 6-Acetyl-5,7-dihydroxy-8-(2-hydroxymethyl-pyrrolidin-1-ylmethyl)-2-phenyl-chromen-4-one]",2550 µg/mL,,1.77,5.4,43.4 µg/mL,,,,,
O=c1cc(-c2ccccc2)oc2cc(O)cc(O)c12 [Chrysin],,,,,,30 µM,0.64 µM,> 95%,,
"CC(=O)c1c(O)c(CN2CCC(O)CC2)c(O)c2c(=O)cc(-c3ccccc3)oc12 [is-CH-j, 8-Acetyl-5,7-dihydroxy-6-(4-hydroxy-piperidin-1-ylmethyl)-2-phenyl-chromen-4-one]",3410 µg/mL,,1.82,4.5,52 µg/mL,,,,,
"CC[C@@]1(O)C(=O)OCc2c1cc1n(c2=O)Cc2cc3cc(O)ccc3nc2-1 [HCPT, reference compound]",,,,,,,,,present fluorescence,"induce apoptosis at low doses, and high dose can cause the inflammatory necrosis of early cells"

# More lines, main results first:
"solubility [1, 5]","solubility ([1]; water, text values of BA-j and BA-f, read-out: Solubility in water)",logP (log P in Octanol/Water),pKa (pKa),"solubility [1, 6]",IC50 [2],SMILES,Maximum drug concentration [3],Glucose aldehyde acid metabolism [4],"NaOCl, yellow green fluorescence (Hep G2)",Apoptosis and necrosis by Annexin V-FITC-PI (BGC-823)
277 µg/mL,0.53 µg/mL,1.7,5.6,,,"CN1CCN(Cc2c(O)c(O)c(O)c3c(=O)cc(-c4ccccc4)oc23)CC1 [BA-f, 5,6,7-trihydroxy-8-(4-methylpiperazin-1-ylmethyl)-2-phenyl-chromen-4-one, reference compound]",,,,
120 µg/mL,,3.08,4.8,0.1 µg/mL,,"CC(=O)c1c(O)c(CN2CCSCC2)c2oc(-c3ccccc3)cc(=O)c2c1O [CH-e, 6-Acetyl-5,7-dihydroxy-2-phenyl-8-(thiomorpholin-4-ylmethyl)-2-phenyl-chromen-4-one]",,,,
580 µg/mL,,2.62,5.1,1.4 µg/mL,,"CC(=O)c1c(O)c(CN2CCOCC2)c2oc(-c3ccccc3)cc(=O)c2c1O [CH-d, 6-Acetyl-5,7-dihydroxy-8-morpholin-4-ylmethyl-2-phenyl-chromen-4-one]",,,,
733 µg/mL,,2.07,4.8,6.2 µg/mL,,"CC(=O)c1c(O)c(CN2CCN(CCO)CC2)c2oc(-c3ccccc3)cc(=O)c2c1O [CH-i, 6-Acetyl-5,7-dihydroxy-8-[4-(2-hydroxy-ethyl)-piperazin-1-ylmethyl]-2-phenyl-chromen-4-one]",,,,
